Results published in publication PMC10812521, “Boesenbergia rotunda and Its Pinostrobin for Atopic Dermatitis: Dual 5-Lipoxygenase and Cyclooxygenase-2 Inhibitor and Its Mechanistic Study through Steady-State Kinetics and Molecular Modeling” (Antioxidants, 2024).
Values after ≈ are worked out from the molar mass of the structure shown. “Also recorded” adds a separate entry of the source. Read-outs that look alike come from different tables or passages of the source.

How the values were obtained:
Staphylococcus aureus = experiment: Broth dilution assay (MIC); assay type: cell-based; settings: pure compounds, inactive at >200 µg/mL
Procedure: The MIC values were determined using a broth dilution assay. Tetracycline used as an antibiotic was dissolved in 50% ethanol while EOs, extracts, and pinostrobin dissolved in DMSO (0.2% v/v) were suspended in an LB medium to obtain the final concentrations of EOs/extract, pinostrobin, and tetracycline in the range of 0.1562–200 µg/mL. Then, 20 µL of the bacterial culture with an OD600 value of ~0.5 was taken into each tube, which was continuously inoculated. Afterward, the treated culture was incubated at 37 °C for 24 h in a shaking condition (180 rpm). The absorbance was further measured at 600 nm. An LB medium and 0.2% DMSO were used as positive controls, while the cell culture without treatment in an LB medium was used as a negative control. The experiments were performed in triplicate.

[1] = Nitric oxide (NO) radical scavenging activity (Griess reaction); settings: pure compounds
Procedure: The technique was adapted and modified from the study of Thadhani et al.. The Griess reaction was used to determine the NO radical scavenging activity. The NO radicals were generated from 10 mM sodium nitroprusside (SNP) in phosphate-buffered saline (PBS), pH 7.3. A range of sample concentrations (10 µL, 0.625–5 mg/mL) were reacted with 10 mM SNP in PBS at pH 7.3 (90 µL) at room temperature for 90 min in a 96-well plate under visible polychromatic light. Afterward, 1% sulfanilamide in 5% H3PO4 (50 µL) was added to the preincubated extract, followed by subsequent incubation in a dark condition with ambient temperature for 5 min. Following that, 50 µL of 0.1% w/v N-(1-naphtyl)-ethylenediamine (NED) in distilled water was added to each well before incubating at room temperature for 30 min in a dark condition. The diazotization of sulfanilamide with a nitrite ion occurred, followed by a coupling reaction with NED solution to generate a magenta-colored chromophore. The absorbance was measured using a microplate reader at 540 nm. Quercetin was used as a positive control. […] A solvent was used as a control. The percentage inhibition was calculated using Equation (5). (5) % Inhibition=Absorbance control−Absorbance sample/Absorbance control×100

[2] = target: T1, Human recombinant 5-lipoxygenase (Homo sapiens, UniProt P09917); experiment: Steady-state inhibition kinetic study of 5-lipoxygenase; assay type: biochemical
T1 construct: purchased Cayman Chemical
T1 sequence (P09917 1-674): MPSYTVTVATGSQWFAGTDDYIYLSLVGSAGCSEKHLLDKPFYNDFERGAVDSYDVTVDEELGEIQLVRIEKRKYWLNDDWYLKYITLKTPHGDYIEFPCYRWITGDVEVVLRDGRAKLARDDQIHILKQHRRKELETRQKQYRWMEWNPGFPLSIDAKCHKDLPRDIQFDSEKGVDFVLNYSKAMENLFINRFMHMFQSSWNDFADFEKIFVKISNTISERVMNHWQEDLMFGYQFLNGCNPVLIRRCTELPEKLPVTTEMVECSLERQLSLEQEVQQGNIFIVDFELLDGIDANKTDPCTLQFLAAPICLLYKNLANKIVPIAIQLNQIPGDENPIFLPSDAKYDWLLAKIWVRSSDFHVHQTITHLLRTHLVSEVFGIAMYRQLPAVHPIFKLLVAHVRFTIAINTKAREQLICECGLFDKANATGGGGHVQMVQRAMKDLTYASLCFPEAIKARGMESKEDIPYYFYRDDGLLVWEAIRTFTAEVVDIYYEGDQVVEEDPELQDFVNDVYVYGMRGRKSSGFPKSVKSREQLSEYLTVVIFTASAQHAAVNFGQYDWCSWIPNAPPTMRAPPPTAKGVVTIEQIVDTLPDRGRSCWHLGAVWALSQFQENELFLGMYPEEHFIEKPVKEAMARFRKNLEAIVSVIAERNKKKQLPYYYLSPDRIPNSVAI
Procedure: The same experimental conditions as described previously for determining enzyme inhibition were applied. The reaction was performed at 25 °C and measured kinetically for 30 min (BioTek Synergy H1 microplate reader, Winooski, VT, USA). […] Furthermore, the enzymes’ velocity was plotted versus the substrate concentration, which was fitted to the Henri–Michaelis–Menten equation. In addition, the data were transformed to fit a double reciprocal plot using the Lineweaver–Burk method. […] All measurements were performed in two rounds of triplicate wells.

[3] = tested on: keratinocyte (HaCaT) cells; parameters: method as in earlier work; settings: cited from earlier work
Human recombinant 5-LOX = target: T2, Human recombinant 5-LOX (Homo sapiens, UniProt P09917); experiment: 5-Lipoxygenase inhibitory assay; assay type: biochemical
T2 construct: purchased Cayman Chemical
T2 sequence (P09917 1-674): T1 sequence (P09917 1-674)
Procedure: We performed this method according to a previous study with some modifications. Human recombinant 5-LOX (Cayman Chemical, E.C. 1.13.11.34, Ann Arbor, MI, USA) was used in this study. Various concentrations of 20 µL of the tested samples (dissolved in polysorbate-20 and DMSO) were plated in a 96-well UV transparent plate followed by the addition of 100 µL of 0.1 M potassium phosphate buffer, pH 6.3. The mixture was maintained at 25 °C before the addition of enzyme. We added 20 µL of 100 U 5-LOX enzyme (in 0.1 M potassium phosphate buffer, pH 6.3) to the sample solution followed by a 4 min incubation at 25 °C. Afterward, the reaction was initiated by adding 10 µL of 1 mM arachidonic acid as a substrate. The incubation was performed at 25 °C for 30 min, and the absorbance was measured at 234 nm using a microplate reader. The nonenzymatic control was used as a background. […] The experiments were performed in two rounds to generate five replicate wells in total. The percentage of inhibition was calculated by Equation (8), and the IC50 values were determined. (8) % Inhibition=Absorbance control−Absorbance sample/Absorbance control×100

COc1cc(O)c2c(c1)O[C@H](c1ccccc1)CC2=O [Pinostrobin, pinostrobin]
MIC (Staphylococcus aureus; Staphylococcus aureus, read-out: MIC): > 200 µg/mL | MIC (Staphylococcus aureus): >200 µg/mL | NO Radical; IC50 [1]: >1000 µg/mL | Ki [2]: 2280 nM | type of inhibition against 5-LOX ([2]; Michaelis-Menten and Lineweaver-Burk plots): mixed-type inhibition; also recorded: mixed-type inhibitor | IC50 keratinocyte (HaCaT) cells [3]: 30.76 µg/mL (≈ 114 µM) | full maximal inhibitory concentration (IC100) keratinocyte (HaCaT) cells [3]: > 250 µg/mL | IC50 (Human recombinant 5-LOX; read-out: 5-LOX IC50): 499 nM | IC50 (Human recombinant 5-LOX; read-out: 5-LOX IC50 (µg/mL) (converted)): 499 nM | fold superior 5-LOX inhibitory activity than BD (Human recombinant 5-LOX; relative to BD): 4 fold | fold superior 5-LOX inhibitory activity to NDGA (Human recombinant 5-LOX; relative to NDGA): 10 fold
